This note sets out measurements from paper PMC10412585 (Nature Communications, 2023).

One test addresses T1, CD94/NKG2A (Homo sapiens, UniProt P26715+Q13241).
T1 construct: The C-terminus of human NKG2A or NKG2C ectodomain was connected via a GGSGGS linker to human CD94 ectodomain; AviTag biotinylation tag (C); poly-histidine tag (C); made in house; host or cells: baculovirus, High Five (Hi5) insect cells
Description: Steady-state SPR of peptide-HLA-E single chain trimers with CD94/NKG2A. It counts as binding. Conditions: SPR with CD94/NKG2A and CD94/NKG2C, Fig. 5B; taken as lower stability of the peptide-HLA-E complex. How it is done: Specifically, we measured CD94/NKG2A and CD94/NKG2C affinity for HLA-E complexed with three sets of peptides. […] Third, we included […] peptide as a positive control.
Steady-state surface plasmon resonance experiments were performed with a Biacore T200 instrument. CD94/NKG2x in HBS-EP+ buffer was injected as analyte in a concentration range of 0.1 μM to 102.4 μM and flow rate of 10 μL/min at 25 °C. Data was fit with Prism 9.4 (GraphPad Software Inc; San Diego CA) to a “one site, specific binding” model. Sensorgrams are included in Supplemental Fig. 13.
For investigating WN peptides, biotinylated pMHC was immobilized at approximately 400 Response Units (RU) on a Series S SA sensor chip (Cytiva). […] CD94/NKG2A was injected followed by CD94/NKG2C.
For investigating human-derived peptides, Series S CM5 chips (Cytiva) were coupled to neutravidin and utilized. Biotinylated pMHC was immobilized at approximately 400 RU. On one chip, […] CD94/NKG2A was injected followed by CD94/NKG2C. On a second chip, PISD55-63 HLA-E SCT, AKAP6_388-396 HLA-E SCT, GTF3C5_293-301 HLA-E SCT, and reference HLA-DR401 were immobilized. CD94/NKG2C was injected followed by CD94/NKG2A. Rmax, fit values were calculated by Biacore software. Rmax, theoretical values were calculated using the analyte/ligand mass ratio (0.66) multiplied by the amount of ligand coupled to the chip.

Another test has as its system CD94/NKG2C. Description: CD94/NKG2C tetramer and dextramer staining of yeast-displayed peptide-HLA-E. It counts as binding, human. To be noted: yeast-displayed single chain trimer, 500 nM tetramer, 2 h, 4 °C, flow cytometry. The source says: To study the diversity of the HLA-E peptide repertoire recognized by CD94/NKG2x, we adapted an MHC yeast surface display system previously used to study class Ia MHC-restricted TCR recognition[25],[26]. In this system, peptide, Beta-2-microglobulin (β2M), and MHC heavy chain are covalently linked to each other and fused to the N-terminus of the yeast mating factor protein Aga2p (Fig. 1A, B). The HLA-E single chain trimer construct expressed well on the yeast surface, as confirmed via staining for an included hemagglutinin (HA) epitope tag and via an anti-HLA-E antibody (Fig. 1C). Since epitope tag staining assesses construct expression rather than protein fold[27]–[29], we tested peptide-HLA-E (pHLA-E) fold by staining with its cognate NK receptors. […] (Supplemental Fig. 1A, E–G), though both receptors were able to bind and enable selective enrichment of […]/HLA-E-expressing yeast using avid streptavidin-coated beads (Supplemental Fig. 1B–D).
To stain peptide-HLA-E (pHLA-E) with CD94/NKG2x tetramers, each biotinylated receptor was mixed with streptavidin coupled to AlexaFluor647 (SAV-647, made in-house) at a 5:1 ratio and incubated for 5 min on ice. Yeast were stained with 500 nM tetramer for 2 h at 4 °C in the dark with rotation. […]
For orientation: Flow cytometry measures light scatter and fluorescence of single cells or particles in a stream.

T1 sequence (Q13241 whole entry, looked up, the tested form may be a part): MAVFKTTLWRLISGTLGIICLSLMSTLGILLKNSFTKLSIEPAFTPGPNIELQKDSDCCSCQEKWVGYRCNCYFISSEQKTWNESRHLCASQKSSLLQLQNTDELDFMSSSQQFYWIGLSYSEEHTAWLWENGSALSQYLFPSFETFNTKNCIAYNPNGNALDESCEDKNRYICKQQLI
T1 sequence (P26715 whole entry, looked up, the tested form may be a part): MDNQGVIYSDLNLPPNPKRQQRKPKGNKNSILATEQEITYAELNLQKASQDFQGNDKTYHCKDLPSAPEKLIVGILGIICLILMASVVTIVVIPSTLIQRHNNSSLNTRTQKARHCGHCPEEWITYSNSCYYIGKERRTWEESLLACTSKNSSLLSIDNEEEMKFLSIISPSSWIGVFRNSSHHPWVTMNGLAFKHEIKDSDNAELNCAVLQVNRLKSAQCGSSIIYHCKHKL

Take “VNPGRSLFL [BFAR263-271, human peptide from Bifunctional apoptosis regulator]”: at CD94/NKG2A, the “maximal response units (Rmax) compared to theoretical maximum” value is “lower maximal values compared to the theoretical maximum”.

For the sequence VMAPRTLFL [positive control], in the test with CD94/NKG2C, the “CD94/NKG2C tetramer and dextramer staining” value is on record as “minimal signal”.
